Measured values taken from US7795290B2 (Genentech, Inc., priority 2004, dated 2010).

What follows are compounds tested against T1, AKT1 (Homo sapiens, UniProt P31749) (assay: HTS ATP-utilizing enzyme assay, off-chip mobility-shift (Caliper HTS 250)). Details: kinase named = inhibitory activity/selectivity; test compound 10 μM; active = greater than three-sigma from mean.
T1 construct: purchased Upstate 14-276
Assay type: biochemical
Procedure, shortened: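 AKT1 activity was measured by off-chip mobility shift (Caliper HTS 250) as the ratio of peptide substrate to phosphorylated product. Test compound was at 10 μM, with 2.5 h incubation at 20–22° C. EDTA wells served as 100% control and DMSO wells as 0%. Hits were called at three-sigma limits.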

T1 sequence (P31749 whole entry): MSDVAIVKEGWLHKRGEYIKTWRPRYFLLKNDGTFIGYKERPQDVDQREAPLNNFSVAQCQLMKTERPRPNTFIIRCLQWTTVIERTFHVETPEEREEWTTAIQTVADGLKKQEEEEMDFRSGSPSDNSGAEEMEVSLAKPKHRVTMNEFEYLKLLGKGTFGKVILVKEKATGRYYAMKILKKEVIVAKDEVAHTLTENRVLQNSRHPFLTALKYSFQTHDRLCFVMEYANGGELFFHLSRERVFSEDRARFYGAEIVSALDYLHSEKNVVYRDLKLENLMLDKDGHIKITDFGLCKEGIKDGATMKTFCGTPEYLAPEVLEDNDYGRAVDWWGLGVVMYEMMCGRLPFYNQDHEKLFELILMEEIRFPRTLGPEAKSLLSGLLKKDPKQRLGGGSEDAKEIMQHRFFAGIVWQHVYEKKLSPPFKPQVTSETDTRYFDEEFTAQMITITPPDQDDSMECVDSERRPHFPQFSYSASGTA

Activity, AKT1:
CN(C)CCCOc1cccc(-c2csc(N(CCCN3CCOCC3)C(=O)c3cccs3)n2)c1 [N-(4-(3-(3-(dimethylamino)propoxy)phenyl)thiazol-2-yl)-N-(3-morpholinopropyl)thiophene-2-carboxamide], CS(=O)(=O)N1CCN(CCCN(C(=O)c2cccs2)c2nc(-c3cc4ccccc4o3)cs2)CC1 [N-(4-(benzofuran-2-yl)thiazol-2-yl)-N-(3-(4-(methylsulfonyl)piperazin-1-yl)propyl)thiophene-2-carboxamide], CN(CC(O)CO)C(=O)CCN(C(=O)c1cccs1)c1nc(-c2cc3ccccc3o2)cs1 (centres unmarked) [N-(4-(benzofuran-2-yl)thiazol-2-yl)-N-(3-((2,3-dihydroxypropyl)(methyl)amino)-3-oxopropyl)thiophene-2-carboxamide], COC(=O)C1CCCN1C(=O)CCN(C(=O)c1cccs1)c1nc(-c2cc3ccccc3o2)cs1 (centres unmarked) [methyl 1-(3-(N-(4-(benzofuran-2-yl)thiazol-2-yl)thiophene-2-carboxamido)propanoyl)pyrrolidine-2-carboxylate], O=C(CCN1CCCCC1)NCCCN(C(=O)c1cccs1)c1nc(-c2cc3ccccc3o2)cs1 [N-(4-(benzofuran-2-yl)thiazol-2-yl)-N-(3-(3-(piperidin-1-yl)propanamido)propyl)thiophene-2-carboxamide], COc1ccc(-c2csc(N(CCCN3CCOCC3)C(=O)c3cccs3)n2)c(OC)n1 [N-(4-(2,6-dimethoxypyridin-3-yl)thiazol-2-yl)-N-(3-morpholinopropyl)thiophene-2-carboxamide], CCCCCc1ccc(-c2csc(N(CCCN3CCOCC3)C(=O)c3cccs3)n2)cc1 [N-(3-morpholinopropyl)-N-(4-(4-pentylphenyl)thiazol-2-yl)thiophene-2-carboxamide], COc1ccc(-c2csc(N(CCCN3CCOCC3)C(=O)c3cccs3)n2)c(OC)c1 [N-(4-(2,4-dimethoxyphenyl)thiazol-2-yl)-N-(3-morpholinopropyl)thiophene-2-carboxamide], CNC(=O)C1CCN(C(=O)CCCN(C(=O)c2cccs2)c2nc(-c3cc4ccccc4o3)cs2)CC1 [1-(4-(N-(4-(benzofuran-2-yl)thiazol-2-yl)thiophene-2-carboxamido)butanoyl)-N-methylpiperidine-4-carboxamide], CC(=O)NC1CCN(C(=O)CCN(C(=O)c2cccs2)c2nc(-c3cc4ccccc4o3)cs2)C1 (centres unmarked) [N-(3-(3-acetamidopyrrolidin-1-yl)-3-oxopropyl)-N-(4-(benzofuran-2-yl)thiazol-2-yl)thiophene-2-carboxamide], O=C(CCN(C(=O)c1cccs1)c1nc(-c2cc3ccccc3o2)cs1)N1CCNCC1 [N-(4-(benzofuran-2-yl)thiazol-2-yl)-N-(3-oxo-3-(piperazin-1-yl)propyl)thiophene-2-carboxamide], COc1ccc(OC)c(-c2csc(N(CCCN3CCCCC3)C(=O)c3cccs3)n2)c1 [N-(4-(2,5-dimethoxyphenyl)thiazol-2-yl)-N-(3-(piperidin-1-yl)propyl)thiophene-2-carboxamide], NC(=O)CNC(=O)CCCN(C(=O)c1cccs1)c1nc(-c2cc3ccccc3o2)cs1 [N-(4-(2-amino-2-oxoethylamino)-4-oxobutyl)-N-(4-(benzofuran-2-yl)thiazol-2-yl)thiophene-2-carboxamide], COc1ccc(-c2csc(N(CCCN3CCOCC3)C(=O)c3ccc(Cl)s3)n2)cc1 [5-chloro-N-(4-(4-methoxyphenyl)thiazol-2-yl)-N-(3-morpholinopropyl)thiophene-2-carboxamide], O=C(c1cccs1)N(CCCN1CCOCC1)c1nc(-c2ccc(-c3ccccn3)s2)cs1 [N-(3-morpholinopropyl)-N-(4-(5-(pyridin-2-yl)thiophen-2-yl)thiazol-2-yl)thiophene-2-carboxamide], CC(C)(C)OC(=O)N1CCN(C(=O)CCCN(C(=O)c2cccs2)c2nc(-c3cc4ccccc4o3)cs2)CC1 [tert-butyl 4-(4-(N-(4-(benzofuran-2-yl)thiazol-2-yl)thiophene-2-carboxamido)butanoyl)piperazine-1-carboxylate], O=C(c1cccs1)N(CCCC(=O)N1c2ccccc2C[C@H]1CO)c1nc(-c2cc3ccccc3o2)cs1 [(S)—N-(4-(benzofuran-2-yl)thiazol-2-yl)-N-(4-(2-(hydroxymethyl)indolin-1-yl)-4-oxobutyl)thiophene-2-carboxamide], O=C1CCCN1CCCN(C(=O)c1ccco1)c1nc(-c2cc(-c3ccccc3)no2)cs1 [N-(3-(2-oxopyrrolidin-1-yl)propyl)-N-(4-(3-phenylisoxazol-5-yl)thiazol-2-yl)furan-2-carboxamide], O=C(CC1NC(=O)NC1=O)NCCCN(C(=O)c1cccs1)c1nc(-c2cc3ccccc3o2)cs1 (centres unmarked) [N-(4-(benzofuran-2-yl)thiazol-2-yl)-N-(3-(2-(2,5-dioxoimidazolidin-4-yl)acetamido)propyl)thiophene-2-carboxamide], CCN(CC)CCCN(C(=O)c1ccccc1)c1nc(-c2cc(OC)ccc2OC)cs1 [N-(3-(diethylamino)propyl)-N-(4-(2,5-dimethoxyphenyl)thiazol-2-yl)benzamide], COc1ccc(-c2csc(N(CCCN3CCCCCC3)C(=O)c3ccco3)n2)cc1 [N-(3-(azepan-1-yl)propyl)-N-(4-(4-methoxyphenyl)thiazol-2-yl)furan-2-carboxamide], CN(C)CCCC(=O)NCCCN(C(=O)c1cccs1)c1nc(-c2cc3ccccc3o2)cs1 [N-(4-(benzofuran-2-yl)thiazol-2-yl)-N-(3-(4-(dimethylamino)butanamido)propyl)thiophene-2-carboxamide], NC(=O)C1CCN(CCCN(C(=O)c2cccs2)c2nc(-c3cc4ccccc4o3)cs2)CC1 [1-(3-(N-(4-(benzofuran-2-yl)thiazol-2-yl)thiophene-2-carboxamido)propyl)piperidine-4-carboxamide], CC(=O)N(C)C1CCN(CCCN(C(=O)c2cccs2)c2nc(-c3cc4ccccc4o3)cs2)C1 (centres unmarked) [N-(4-(benzofuran-2-yl)thiazol-2-yl)-N-(3-(3-(N-methylacetamido)pyrrolidin-1-yl)propyl)thiophene-2-carboxamide], O=C(CCCN(C(=O)c1cccs1)c1nc(-c2cc3ccccc3o2)cs1)N1CCCCC1 [N-(4-(benzofuran-2-yl)thiazol-2-yl)-N-(4-oxo-4-(piperidin-1-yl)butyl)thiophene-2-carboxamide], O=C(c1cccs1)N(CCCN1CCOCC1)c1nc(-c2ccc(F)cc2)cs1 [N-(4-(4-fluorophenyl)thiazol-2-yl)-N-(3-morpholinopropyl)thiophene-2-carboxamide]
